For 13 compounds, EC50 and inhibition results are on record in patent US10703748B2, “Diazanaphthalen-3-yl carboxamides and preparation and use thereof” (Samumed, LLC, priority 2017, dated 2020).

One may read the EC50 as the concentration that produces a half-maximal response.

In test [1] the test system is α-smooth muscle actin (aSMA) positive LL29 cells. The test can be described thus: Inhibition of the fibrotic process: αSMA staining in TGF-β1 treated LL29 fibroblasts from IPF patients. As to conditions: Homo sapiens, Fibroblast; for EC50: 96 h; for inhibition at 10 µM: read-out: percentage in parentheses after EC50 >10.
The test system of test [2] is IL-6. In words: IL-6 inhibition in LPS-stimulated human peripheral blood mononuclear cells (HTRF). The settings on record: Homo sapiens, PBMC; for EC50: 22 h; for inhibition at 10 µM: read-out: percentage in parentheses after EC50 >10. A general note: In TR-FRET formats the signal depends on donor and acceptor labels being close together.
Test [3] has as its system SW480 colon carcinoma cells. The test can be described thus: Cell viability assay (CellTiter-Glo). The settings on record: Homo sapiens; for EC50: SW480, 96 h; for inhibition at 10 µM: SW480, read-out: percent inhibition at 10 μM. For orientation: In ATP-based viability assays light output follows the ATP content of the culture.
Test [4] has as its system secreted cytokines TNFα, IL-6 and KC-GRO. In words: Secreted cytokines in Lipopolysaccharide-stimulated BV-2 cells (Table 9 does not say which cytokine). Format: cell-based, mouse. The settings on record: Mus musculus, BV-2, 5 h; read-out: EC50.
Test [5] concerns the target DYRK1A kinase (Homo sapiens, UniProt Q13627). In words: DYRK1A kinase activity (Ser/Thr 18 peptide Z-lyte FRET assay).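 Also: kinase activity read as coumarin/fluorescein emission ratio after development step, with unphosphorylated and phosphorylated peptide forms setting 0% and 100% controls, values from dose-response curves.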 As to conditions: recombinant DYRK1A, 30 μM ATP, one hour at room temperature. It is filed as biochemical.
For test [6], the target named is GSK3β kinase (Homo sapiens, UniProt P49841). The test can be described thus: GSK3β kinase activity (Ser/Thr 09 peptide Z-lyte FRET assay). It is filed as biochemical. The settings on record: recombinant kinase, 46 μM ATP, one hour at room temperature; read-out: EC50.
GSK3β kinase, sequence (P49841 whole entry): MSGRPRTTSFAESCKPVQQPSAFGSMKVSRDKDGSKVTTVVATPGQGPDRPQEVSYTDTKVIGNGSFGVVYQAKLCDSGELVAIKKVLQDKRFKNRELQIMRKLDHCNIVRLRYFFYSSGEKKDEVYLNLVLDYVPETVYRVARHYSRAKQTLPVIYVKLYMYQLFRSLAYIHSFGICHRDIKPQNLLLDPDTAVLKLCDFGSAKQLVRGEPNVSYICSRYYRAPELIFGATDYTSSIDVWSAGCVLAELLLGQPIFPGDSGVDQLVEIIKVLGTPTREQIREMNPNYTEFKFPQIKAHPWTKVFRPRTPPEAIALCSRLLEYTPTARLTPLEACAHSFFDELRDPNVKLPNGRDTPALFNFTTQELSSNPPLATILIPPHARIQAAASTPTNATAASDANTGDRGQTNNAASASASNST
For test [7], the system named is Wnt-responsive Sp5-Luc reporter in SW480 colon carcinoma cells. The test can be described thus: Screening assay for Wnt activity (Sp5-Luc reporter gene assay). The settings on record: Homo sapiens; for EC50: SW480; for inhibition at 10 µM: SW480, read-out: percent inhibition at 10 μM.
Test [8] concerns Tau phosphorylation at Ser396 (pSer396). The test can be described thus: Tau phosphorylation at Ser396 (pSer396) in SH-SY5Y cells, ELISA / western blot.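 Also: decrease in pSer396 Tau measured in lysates of treated cells by colorimetric ELISA or chemiluminescent western blot, same pSer396 antibody for both.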 Format: cell-based, human. The settings on record: Homo sapiens; SH-SY5Y cells, overnight (16-18 h); read-out: pSer396 Tau EC50. A general note: ELISA stands for enzyme-linked immunosorbent assay.
Protocol: Two days before treatment, cells were seeded onto 96 well plates at 5×10^4 cells/well.
The above synthesized compounds were screened using the cell assay procedure to assess decrease Tau phosphorylation at Ser396 (pSer396) described below.
Cells were lysed with RIPA buffer complemented with phosphatase and protease inhibitors then lysates were spun down at 12,000 g for 10 min to remove any cellular debris.

Molecules are shown by their SMILES.

As to `CN(CC(=O)Nc1ncc2ccc(-c3cnn(C)c3)cc2n1)C1CCC1` [Compound 963, 2-(Cyclobutyl(methyl)amino)-N-(7-(1-methyl-1H-pyrazol-4-yl)quinazolin-2-yl)acetamide], the EC50 in test [1] is 1.57 µM; in test [2], greater than 10 µM; in test [3], greater than 10 µM; in test [4], 0.354 µM; in test [5], 0.045 µM; in test [6] it was 0.045 µM. Also, the EC50 in test [7] was greater than 10 µM; in test [8] it was 1.62 µM. The inhibition at 10 µM in test [2] was found to be 5.4%; in test [3], 27.9%; in test [7], 11.8%.

As to `Cn1cc(-c2ccc3cnc(NC(=O)CN4CCOCC4)nc3c2)cn1` [Compound 985, N-(7-(1-Methyl-1H-pyrazol-4-yl)quinazolin-2-yl)-2-morpholinoacetamide], the EC50 in test [1] was greater than 10 µM; in test [2] it was greater than 10 µM; in test [3], greater than 10 µM; in test [4], greater than 10 µM; in test [5] it was 0.126 µM; in test [6], 0.035 µM. Besides, the values for the EC50 in test [7] and in test [8] were greater than 10 µM and 5.4 µM, respectively. Moreover, the inhibition at 10 µM in test [1] amounted to 51.7%; in test [2], 3.2%; in test [3], 9.6%; in test [7], 5.5%.

Consider `Cn1cc(-c2ccc3cnc(NC(=O)CC4CNCCO4)nc3c2)cn1` (centres unmarked) [Compound 994, N-(7-(1-Methyl-1H-pyrazol-4-yl)quinazolin-2-yl)-2-(morpholin-2-yl)acetamide], for which the EC50 in test [1] is greater than 10 µM; in test [2], 8.31 µM; in test [3], greater than 10 µM; in test [4], 1.3 µM; in test [5], 0.015 µM; in test [6], 0.776 µM. Further, the EC50 in test [7] and in test [8] was greater than 10 µM each time. Besides, the inhibition at 10 µM came out at 0% in test [1], 24.8% in test [3] and 11.5% in test [7].

Take `Cn1cc(-c2ccc3cnc(NC(=O)C4CCN(Cc5ncco5)CC4)nc3c2)cn1` [Compound 1003, N-(7-(1-Methyl-1H-pyrazol-4-yl)quinazolin-2-yl)-1-(oxazol-2-ylmethyl) piperidine-4-carboxamide]: the half-maximal effective concentration (EC50) in test [1] was greater than 10 µM; in test [2], greater than 10 µM; in test [3] it was greater than 10 µM; in test [4], 1.49 µM; in test [5] it was 0.025 µM; in test [6], 0.262 µM. Also, the EC50 in test [7] was greater than 10 µM; in test [8], 4.5 µM. The inhibition at 10 µM in test [1] came out at 4.8%; in test [2] it was 6.6%; in test [3], 18.5%; in test [7], 19.3%.

For `Cn1cc(-c2ccc3cnc(NC(=O)C4CCN(Cc5ncccn5)CC4)nc3c2)cn1` [Compound 1007, N-(7-(1-methyl-1H-pyrazol-4-yl)quinazolin-2-yl)-1-(pyrimidin-2-ylmethyl)piperidine-4-carboxamide], the concentration for a half-maximal effect (EC50) is greater than 10 µM in test [1]; greater than 10 µM in test [2]; greater than 10 µM in test [3]; 1.8 µM in test [4]; 0.106 µM in test [5]; 0.349 µM in test [6]. Besides, the half-maximal effective concentration (EC50) in test [7] and in test [8] was greater than 10 µM in each case. Also, the inhibition at 10 µM turned out to be 39.7% in test [1], 2.4% in test [2], 17.9% in test [3] and 14.6% in test [7].

Turning to `Cn1cc(-c2ccc3cnc(NC(=O)CCc4ccccc4)nc3c2)cn1` [Compound 1101, N-(7-(1-Methyl-1H-pyrazol-4-yl)quinazolin-2-yl)-3-phenylpropanamide], the concentration for a half-maximal effect (EC50) in test [1] was greater than 10 µM; in test [2] it was greater than 10 µM; in test [3], 4.48 µM; in test [4], 3.1 µM; in test [5] it was 0.02 µM; in test [6], 0.055 µM. In addition, the 50% effective concentration (EC50) was determined as 2.28 µM in test [7] and 9.5 µM in test [8]. Besides, the inhibition at 10 µM came to 12.7% in test [1] and 10.6% in test [2].

Consider `Cn1ncc(-c2ccc3cnc(NC(=O)C4CC5(C4)CN(CCF)C5)nc3c2)c1CN1CCCCC1` [Compound 1186, 2-(2-Fluoroethyl)-N-(7-(1-methyl-5-(piperidin-1-ylmethyl)-1H-pyrazol-4-yl)quinazolin-2-yl)-2-azaspiro[3.3]heptane-6-carboxamide], for which the EC50 in test [1] was greater than 10 µM; in test [2], greater than 10 µM; in test [3], greater than 10 µM; in test [4] it was 5.6 µM; in test [5], 0.042 µM; in test [6] it was 0.402 µM. Moreover, the EC50 in test [7] was greater than 10 µM; in test [8] it was 5.4 µM. The inhibition at 10 µM was 24.5% in test [1], 6.7% in test [2], 35.2% in test [3] and 35.8% in test [7].

With `Cn1cc(-c2ccc3cnc(NC(=O)C4CCN(CC5(C(F)(F)F)CC5)CC4)nc3c2)nn1` [Compound 1253, N-(7-(1-Methyl-1H-1,2,3-triazol-4-yl)quinazolin-2-yl)-1-((1-(trifluoromethyl)cyclopropyl)methyl)piperidine-4-carboxamide], the concentration for a half-maximal effect (EC50) in test [1] is greater than 10 µM; in test [2], greater than 10 µM; in test [3], greater than 10 µM; in test [4], greater than 10 µM; in test [5], 0.013 µM; in test [6] it was 0.015 µM. The EC50 was determined as 1.18 µM in test [7] and 0.188 µM in test [8]. In addition, the inhibition at 10 µM in test [1] worked out at 47.2%; in test [2] it was 4.4%; in test [3] it was 17.1%.

For the compound `CNC(=O)c1ccc(C(=O)Nc2ncc3ccc(-c4cn(C)nn4)cc3n2)cn1` [Compound 1278, N^2-Methyl-N^5-(7-(1-methyl-1H-1,2,3-triazol-4-yl)quinazolin-2-yl)pyridine-2,5-dicarboxamide], the half-maximal effective concentration (EC50) is greater than 10 µM in test [1]; greater than 10 µM in test [2]; 8.53 µM in test [3]; 7.2 µM in test [4]; 0.007 µM in test [5]; 0.134 µM in test [6]. Moreover, the EC50 in test [7] was 3.7 µM; in test [8], 5.05 µM. The inhibition at 10 µM in test [1] came out at 35.9%; in test [2], 3%.

As for `CN1CCC(N(C)c2cc(C(=O)Nc3ncc4ccc(-c5cn(C)nn5)cc4n3)ccn2)CC1` [Compound 1288, 2-(Methyl(1-methylpiperidin-4-yl)amino)-N-(7-(1-methyl-1H-1,2,3-triazol-4-yl)quinazolin-2-yl)isonicotinamide], the EC50 in test [1] is 8.01 µM; in test [2], greater than 10 µM; in test [3] it was 1.09 µM; in test [4], 6.1 µM; in test [5], 0.006 µM; in test [6], 0.177 µM. The concentration giving a half-maximal response (EC50) in test [7] stood at 0.059 µM; in test [8], 10 µM. Also, the inhibition at 10 µM in test [2] came to 9.8%.

Regarding `Cc1cn2c(n1)CN(C(=O)Nc1ncc3ccc(-c4cnc(C)o4)cc3n1)CC2` [Compound 1491, 2-Methyl-N-(7-(2-methyloxazol-5-yl)quinazolin-2-yl)-5,6-dihydroimidazo [1,2-a]pyrazine-7(8H)-carboxamide], the EC50 in test [1] was greater than 10 µM; in test [2] it was greater than 10 µM; in test [3], 8.86 µM; in test [4], 3.9 µM; in test [5] it was 0.039 µM; in test [6], 0.166 µM. The EC50 in test [7] is greater than 10 µM; in test [8], 3.7 µM. The inhibition at 10 µM in test [1] came out at 6.1%; in test [2], 2.6%; in test [7], 25.2%.

As for `CN(C)[C@H]1CC[C@H](C(=O)Nc2ncc3ccc(-c4cncs4)cc3n2)CC1` [Compound 1518, trans-4-(Dimethylamino)-N-(7-(thiazol-5-yl)quinazolin-2-yl)cyclohexane-1-carboxamide], the EC50 in test [1] was 2.61 µM; in test [2], greater than 10 µM; in test [3], greater than 10 µM; in test [4], 1.08 µM; in test [5] it was 0.014 µM; in test [6], 0.253 µM. Besides, the figures for the EC50 in test [7] and in test [8] were greater than 10 µM and 5.4 µM, respectively. In addition, the inhibition at 10 µM in test [2] is 30.1%; in test [3], 25.3%; in test [7] it was 24.8%.

In the case of `O=C(Nc1ncc2ccc(-c3cncs3)cc2n1)C1CCN(C(=O)CN2CCCC2)CC1` [Compound 1524, 1-(2-(Pyrrolidin-1-yl)acetyl)-N-(7-(thiazol-5-yl)quinazolin-2-yl)piperidine-4-carboxamide], the 50% effective concentration (EC50) in test [1] was 4.78 µM; in test [2], greater than 10 µM; in test [3], greater than 10 µM; in test [4] it was 3.6 µM; in test [5], 0.007 µM; in test [6] it was 0.407 µM. For the same compound, the half-maximal effective concentration (EC50) in test [7] and in test [8] was greater than 10 µM throughout. The inhibition at 10 µM came to 50% in test [2], 18.1% in test [3] and 13.4% in test [7].
